Test results as given in patent publication US20070254882A1, “Sulfamide Derivatives and Pharmaceutical Composition for Upregulation of Lipid Metabolism Comprising Same” (CRYSTAL GENOMICS, INC., priority 2004, published 2007).

Tests used:
[1] = tested on: ob/ob mice; test: Oral glucose tolerance test (OGTT) in ob/ob mice; assay type: in vivo
Procedure: (§1) In order to evaluate the anti-obesity activity of the inventive compound, B6.V-Lepob/J mice (laboratory animal team of Korea Research Institute of Chemical Technology) were used for tests and lean mice as a control. Ob/ob mice are model animals for insulin-independent diabetes, suitable for studying the effect of an anti-obesity drug.
(§2) 42 mice weighing 38.6±1.4 g were selected randomly from a pool of ob/ob mice (7-9 weeks old), and divided into groups of 7 mice each. The test was carried out at a constant temperature (24±0.5° C.) and humidity (55±5%) using ventilation system (10-12 times/hour), under a specific pathogen free (SPF) condition created in an automatic on-off cycle of 12 hours.
(§3) The groups were divided to a control group treated only with an excipient, a positive control group treated with fenofibrate, and test groups treated with each of the compounds of Examples 5, 62 and 65, at dosage 100 mg/10 ml/kg body weight. Each of the test and control compounds was diluted with 0.5% CMC to a concentration to match the above dosage, and administered orally using a syringe into the stomach twice a day (9:00 and 18:00) for a period of 4 weeks, and the following characteristics were measured.
4) Oral Glucose Tolerance Test (OGTT)
28 days after the administration, each of the experimental mice was fasted for 16 hours, 2 g/kg of glucose was administered thereto, a blood sample was collected from the ocular venous plexus thereof at 0, 15, 30, 60 and 120 min from the administration, and the glucose concentration and AUC (area under the curve, Skrumsager et al., J Clin Pharmacol. 43, 1244-1256, 2003) were determined.

[2] = tested on: ob/ob mice; test: Anti-obesity test: dissection, fat weights in ob/ob mice; assay type: in vivo; settings: ob/ob mice after completing all tests
Procedure: as §1, §2, §3
After completing all tests, each of the mice in test treated with the compounds of Examples 5 and 62 and the positive control group treated with fenofibrate was sacrificed, the whole blood, liver, muscle and white adipose tissue thereof were extracted. White adipose tissued was divided into visceral fat and subcutaneous fat, and the amounts of the total fats and liver tissue were weighed separately.

[3] = molecular target: T1, human PPAR α (Homo sapiens, UniProt Q07869); test: Exogeneous PPAR α agonist assay (GAL4 DNA binding domain/PPAR α ligand binding domain, luciferase) in 293T cells; assay type: cell-based; design: scale not given here; settings: 25 μM compound, 48 hours, luciferase activity increase relative to the control
T1 construct: expressed in transfected cells; host or cells: HepG2 (ATCC HB-8065) or 293T cells (ATCC CRL-1573)
T1 sequence (Q07869 239-466 limits assumed): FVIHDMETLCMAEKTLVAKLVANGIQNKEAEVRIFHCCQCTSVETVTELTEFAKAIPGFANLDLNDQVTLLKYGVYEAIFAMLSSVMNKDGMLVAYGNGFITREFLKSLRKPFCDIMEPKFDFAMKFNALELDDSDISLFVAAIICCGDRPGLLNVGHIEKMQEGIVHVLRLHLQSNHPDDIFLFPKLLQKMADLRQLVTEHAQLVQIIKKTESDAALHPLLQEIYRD
Outline: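 HepG2 or 293T cells (2×10^4/well) lipofectamine-transfected 3 hours with PPAR α, UAS firefly-luciferase and Renilla-luciferase constructs. Compounds then added at 25 μM final and incubated 48 hours at 37° C. PPAR α activation measured as dual firefly/Renilla luciferase luminescence.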

[4] = tested on: ob/ob mice; test: Anti-obesity test: body weight measurement in ob/ob mice; assay type: in vivo; settings: 100 mg/kg oral twice a day
Procedure: as §1, §2, §3
2) Body Weight Measurement
The average body weight of each group was measured every 3 days after the administration, and the changes in the average body weight and body weight gain (measured body weight—initial body weight) were analyzed.

[5] = tested on: ob/ob mice; test: Anti-obesity test: lipid metabolism-related materials and glucose in blood of ob/ob mice; assay type: in vivo; settings: 28 days
Procedure: as §1, §2, §3
3) Measurement of Lipid Metabolism-Related Materials and Insulin Concentration in Blood
28 days after the administration, experimental mice were fasted for 16 hours, and the concentrations of lipid metabolism-related materials such as triglyceride, free fatty acid and cholesterol, and insulin in blood were measured. Specifically, a blood sample was collected from the ocular venous plexus of each mouse and centrifuged to separate plasma. The glucose (GLU), HDL-cholesterol (HDL), LDL-cholesterol (LDL), triglyceride (TG) and free fatty acid (NEFA) levels were measured by enzymatic assay using 2 kinds of Selectra (Vital Lab), an automatic biochemical analyzer, and the insulin concentration was measured by ELISA using an insulin detection kit (Shibayagi).

[6] = tested on: ob/ob mice; test: Anti-obesity test: feed intake in ob/ob mice; assay type: in vivo; settings: 100 mg/kg oral twice a day, first week of the test, P<0.005, FIG. 1a
Procedure: as §1, §2, §3
1) General Symptoms and Observation of Dead Animal
The conditions, behavioral changes, addictive symptoms and the death rate were observed constantly during the test period.

[7] = 100 mg/kg oral twice a day, fasted 16 hours, plasma

Activity at 25 μM Step 1 293T cell [3]: 2
Structure (SMILES): Cc1ccc(-c2nc(CCOc3cccc(CN(CC(=O)O)S(=O)(=O)N(C)C)c3)c(C)o2)cc1 [Example 62, [N—(N,N-dimethylamino)sulfonyl-N-[3-[2-[2-(4-methylphenyl)-5-methyloxazol-4-yl]ethoxy]benzyl]amino]acetic acid]
total changes in the glucose concentration represented by AUC compared to the control group ([1]; 2 g/kg glucose, 0-120 min, P<0.05, P<0.005 and P<0.01, FIG. 3b): much lower
glucose concentration at 30 and 60 min after the glucose administration compared to the control group ([1]; 2 g/kg glucose, P<0.01, P<0.05, FIG. 3a): significantly low
glucose concentration during the fast compared to the control group ([1]; ob/ob mice, 28 days, fasted 16 hours, P<0.05, FIG. 3c): significantly low
weight of subcutaneous fat [2]: reduced
weight of visceral fat [2]: reduced
adiposity index (fat weight/(body weight—fat weight)) ([2]; FIG. 4b): reduced
total fat weight ([2]; P<0.01, P<0.005, FIG. 4a): low
body weight effect compared to the positive control group treated with fenofibrate [4]: improved effect
change in the body weight gain compared to the control group ([4]; at day 7 from the administration, P<0.01): evidently lower
change in the average body weight compared to the control group ([4]; at day 10 from the administration, P<0.01, P<0.005): markedly reduced
GLU (glucose) [5, 7]: 190.4 ± 77.6 mg/dL
HDL (HDL-cholesterol) [5, 7]: 381.8 ± 40.1 mg/dL
LDL (LDL-cholesterol) [5, 7]: 37.8 ± 5.2 mg/dL
NEFA (free fatty acid) [5, 7]: 976 ± 238 UEq/l
TG (triglyceride) [5, 7]: 37.9 ± 6.6 mg/dL
GLU concentration compared to the control or positive control group [5]: much lower
HDL concentration [5]: high
triglyceride concentration compared to a control ([5]; P<0.05): significantly lower
daily feed intake compared to the control group [6]: significantly reduced
